# Results as given in ChEMBL document CHEMBL1201862, “PubChem BioAssay data set” (2004).
#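 Assay format: 96-well plates, 48-hour exposure. Abbreviation: GI50, concentration required for 50% inhibition of growth.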 Activity calls are given as the source filed them. Rule as the data show it: active = GI50 up to about 1.1 µM and inactive = higher.
# Experiments:
# Experiment in all cases: inhibition of tumour cell growth, NCI panel, 48 h
# [1] = system: SK-MEL-5
# [2] = system: SNB-75
# [3] = system: M14
# [4] = system: MOLT-4
# [5] = system: NCI-H522
# [6] = system: SN12C
# [7] = system: TK-10
# [8] = system: OVCAR-4
# [9] = system: HOP-18
# [10] = system: NCI-H460
# [11] = system: SK-OV-3
# [12] = system: LXFL 529
# [13] = system: OVCAR-5
# [14] = system: HCT-116
# [15] = system: DLD-1
# [16] = system: NCI-H226
# [17] = system: SR
# [18] = system: HOP-62
# [19] = system: HCC 2998
# [20] = system: A549
# [21] = system: CAKI-1
# [22] = system: 786-0
# [23] = system: COLO 205
# [24] = system: OVCAR-3
# [25] = system: Malme-3M
# [26] = system: HL-60
# [27] = system: OVCAR-8
# [28] = system: A498
# [29] = system: U-251
# [30] = system: EKVX
# [31] = system: SK-MEL-28
# [32] = system: IGROV-1
# [33] = system: SF-295
# [34] = system: UACC-62
# [35] = system: CCRF-CEM
# [36] = system: RXF 631
# [37] = system: SW-620
# [38] = system: KM-20L2
# [39] = system: HCT-15
# [40] = system: SNB-78
# [41] = system: DMS-114
# [42] = system: NCI-H23
# [43] = system: RPMI-8226
# [44] = system: UO-31
# [45] = system: LOX IMVI
# [46] = system: KM12
# [47] = system: M19-MEL
# [48] = system: DMS-273
# [49] = system: SF-539
# [50] = system: HT-29
# [51] = system: UACC-257
# [52] = system: K562
# [53] = system: SNB-19
# [54] = system: ACHN
# [55] = system: SF-268
# [56] = system: SK-MEL-2
# [57] = system: RXF 393
# [58] = system: HOP-92
structure (smiles),measurement,setting,value
COc1ccc(S(=O)(=O)N/N=C(\C)CN2C(=O)c3ccccc3C2=O)cc1,GI50,[1],> 100 µM (inactive)
same,GI50,[2],> 100 µM (inactive)
same,GI50,[3],> 100 µM (inactive)
same,GI50,[4],> 100 µM (inactive)
same,GI50,[5],> 100 µM (inactive)
same,GI50,[6],> 100 µM (inactive)
same,GI50,[7],> 100 µM (inactive)
same,GI50,[8],> 100 µM (inactive)
same,GI50,[9],> 100 µM (inactive)
same,GI50,[10],> 100 µM (inactive)
same,GI50,[11],> 100 µM (inactive)
same,GI50,[12],> 100 µM (inactive)
same,GI50,[13],> 100 µM (inactive)
same,GI50,[14],> 100 µM (inactive)
same,GI50,[15],> 100 µM (inactive)
same,GI50,[16],> 100 µM (inactive)
same,GI50,[17],> 100 µM (inactive)
same,GI50,[18],> 100 µM (inactive)
same,GI50,[19],> 100 µM (inactive)
same,GI50,[20],> 100 µM (inactive)
same,GI50,[21],> 100 µM (inactive)
same,GI50,[22],> 100 µM (inactive)
same,GI50,[23],> 100 µM (inactive)
same,GI50,[24],> 100 µM (inactive)
same,GI50,[25],> 100 µM (inactive)
same,GI50,[26],> 100 µM (inactive)
same,GI50,[27],> 100 µM (inactive)
same,GI50,[28],> 100 µM (inactive)
same,GI50,[29],> 100 µM (inactive)
same,GI50,[30],> 100 µM (inactive)
same,GI50,[31],> 100 µM (inactive)
same,GI50,[32],> 100 µM (inactive)
same,GI50,[33],> 100 µM (inactive)
same,GI50,[34],> 100 µM (inactive)
same,GI50,[35],> 100 µM (inactive)
same,GI50,[36],> 100 µM (inactive)
same,GI50,[37],> 100 µM (inactive)
same,GI50,[38],> 100 µM (inactive)
same,GI50,[39],> 100 µM
same,GI50,[40],> 100 µM (inactive)
same,GI50,[41],> 100 µM (inactive)
same,GI50,[42],> 100 µM (inactive)
same,GI50,[43],> 100 µM (inactive)
same,GI50,[44],> 100 µM (inactive)
same,GI50,[45],> 100 µM (inactive)
same,GI50,[46],> 100 µM (inactive)
same,GI50,[47],> 100 µM (inactive)
same,GI50,[48],> 100 µM (inactive)
same,GI50,[49],> 100 µM (inactive)
same,GI50,[50],> 100 µM (inactive)
same,GI50,[51],> 100 µM (inactive)
same,GI50,[52],> 100 µM (inactive)
same,GI50,[53],> 100 µM (inactive)
same,GI50,[54],> 100 µM (inactive)
same,GI50,[55],> 100 µM (inactive)
same,GI50,[56],> 100 µM (inactive)
Cc1ccc([S+]([O-])c2ccccc2[N+](=O)[O-])cc1 (configuration not stated),GI50,[1],70 µM (inactive)
same,GI50,[3],> 100 µM (inactive)
same,GI50,[4],41.3 µM (inactive)
same,GI50,[5],33.3 µM (inactive)
same,GI50,[6],72.6 µM (inactive)
same,GI50,[7],> 100 µM (inactive)
same,GI50,[8],39.1 µM (inactive)
same,GI50,[10],79.8 µM (inactive)
same,GI50,[57],> 100 µM (inactive)
same,GI50,[11],> 100 µM (inactive)
same,GI50,[13],72.1 µM (inactive)
same,GI50,[14],> 10 µM (inactive)
same,GI50,[15],> 100 µM (inactive)
same,GI50,[16],30.5 µM (inactive)
same,GI50,[17],46 µM (inactive)
same,GI50,[18],> 100 µM (inactive)
same,GI50,[19],78.9 µM (inactive)
same,GI50,[20],70.1 µM (inactive)
same,GI50,[21],43.9 µM (inactive)
same,GI50,[22],> 100 µM (inactive)
same,GI50,[24],73.8 µM (inactive)
same,GI50,[25],> 100 µM (inactive)
same,GI50,[26],29.1 µM (inactive)
same,GI50,[27],> 100 µM (inactive)
same,GI50,[28],28.1 µM (inactive)
same,GI50,[29],48.8 µM (inactive)
same,GI50,[31],42.2 µM (inactive)
same,GI50,[32],65.9 µM (inactive)
same,GI50,[33],> 100 µM (inactive)
same,GI50,[34],> 100 µM (inactive)
same,GI50,[35],28.6 µM (inactive)
same,GI50,[36],35 µM (inactive)
same,GI50,[37],> 100 µM (inactive)
same,GI50,[39],65 µM
same,GI50,[40],> 100 µM (inactive)
same,GI50,[41],36.5 µM (inactive)
same,GI50,[42],32.6 µM (inactive)
same,GI50,[43],52.8 µM (inactive)
same,GI50,[58],60 µM (inactive)
same,GI50,[44],51.2 µM (inactive)
same,GI50,[45],38.5 µM (inactive)
same,GI50,[46],54.6 µM (inactive)
same,GI50,[47],10 µM (inactive)
same,GI50,[48],62.2 µM (inactive)
same,GI50,[49],58.5 µM (inactive)
same,GI50,[50],69.3 µM (inactive)
same,GI50,[51],> 100 µM (inactive)
same,GI50,[52],64.4 µM (inactive)
same,GI50,[53],58.3 µM (inactive)
same,GI50,[54],> 100 µM (inactive)
same,GI50,[56],> 100 µM (inactive)
